The test system of this assay is NAD(P)H-dependent, soluble nitrate reductase of the assimilatory type (E.C. 1.6.6.2) from mould fungus. To be noted: nitrite acts as inhibitor above this concentration.

Regarding `O=NO` [nitrite], the “Inhibitor concentration (product inhibition)” value is reported as “more than 10^-4 M”.

These data come from patent US5169758A (Boehringer Mannheim GmbH, priority 1986, dated 1992).
